Reference: patent US5468760A, “Aralkyl-N-hydroxyureas as inhibitors of 5-lipoxygenase and oxidation of low density lipoprotein” (American Home Products Corporation, priority 1993, dated 1995)

Key:
5-Lipoxygenase = target: T1, 5-Lipoxygenase (Homo sapiens, UniProt P09917); experiment: Inhibition of 5-Lipoxygenase in Human Whole Blood (LTB4, calcium ionophore A23187); format: cell-based; settings: 1 μM
T1 construct: endogenous in cells; host or cells: human whole blood from male donors (results expressed per 10^6 neutrophils)
T1 sequence (P09917 1-674): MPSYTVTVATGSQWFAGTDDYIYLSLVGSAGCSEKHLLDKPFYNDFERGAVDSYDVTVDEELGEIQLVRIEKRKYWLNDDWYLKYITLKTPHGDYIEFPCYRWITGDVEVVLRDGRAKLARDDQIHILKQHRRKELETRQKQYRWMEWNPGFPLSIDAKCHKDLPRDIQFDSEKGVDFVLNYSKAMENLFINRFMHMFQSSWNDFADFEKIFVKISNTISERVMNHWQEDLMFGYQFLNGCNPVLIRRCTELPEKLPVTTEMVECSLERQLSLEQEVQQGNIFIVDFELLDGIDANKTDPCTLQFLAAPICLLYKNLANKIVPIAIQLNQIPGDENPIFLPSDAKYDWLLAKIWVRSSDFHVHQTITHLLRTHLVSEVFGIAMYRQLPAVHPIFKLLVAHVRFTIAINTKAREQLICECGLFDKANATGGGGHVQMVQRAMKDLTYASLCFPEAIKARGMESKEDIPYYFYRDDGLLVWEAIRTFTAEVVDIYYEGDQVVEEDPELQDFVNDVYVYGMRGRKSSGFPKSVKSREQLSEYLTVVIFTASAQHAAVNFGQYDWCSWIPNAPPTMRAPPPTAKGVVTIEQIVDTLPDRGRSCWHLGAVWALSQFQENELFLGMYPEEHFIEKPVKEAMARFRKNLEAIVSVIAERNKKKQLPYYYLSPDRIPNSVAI
Description: 1. Inhibition of 5-Lipoxygenase in Human Whole Blood
Blood is obtained in 50-100 ml quantities from male donors. White blood cell counts and differentials are made. Two ml of blood are placed in a 15 ml polypropylene test tube. Test compounds are solubilized in dimethylsulfoxide and diluted in 1:10 in 10% bovine serum albumin in phosphate buffered saline, pH 7.4 resulting in a final dimethylsulfoxide concentration of 0.1% in the blood. Then, solutions of test compounds are added to the blood in a shaking water bath at 37° C. for 10 minutes prior to the addition of 30 μM calcium ionophore (A23 187, Sigma). After ionophore administration, whole blood samples are mixed and incubated for 20 minutes at 37° C. in a shaking water bath. Incubation is terminated by placing samples in an ice bath and immediately adding ethylene glycol-bis-(β-aminoethyl ether)-N,N,N',N'-tetraaceticacid (10 mM). Samples are mixed and centrifuged at 1200 x g for 15 minutes at 4° C. Preparation of samples for evaluation by RIA or ELISA is carried out by the following protocol. Plasma is removed from sample tubes, placed in 15 ml polypropylene test tubes containing 8 ml methanol, and then vortexed to precipitate protein. Samples are stored at -70° C. overnight. The next day, samples are centrifuged at 200 x g for 15 minutes at 4° C. to pellet the precipitate. Samples are dried in a Savant SpeedVac Concentrator, Model SVC 200H, reconstituted to original volume with ice cold RIA or ELISA buffer, and stored at -70° C. until assayed. The assay for eicosanoids (LTB4, TxB2, and PGE2) is performed as described by the manufacturer of the [^3 H]-RIA kit or ELISA kit (LTB4 -Amersham, TxB2 and PGE2 -Caymen Chemical).
The total eicosanoid level in 2 ml of blood is calculated and reported as ng/10^6 neutrophils. Significance is determined by a one-way analysis of variance with least significant difference (LSD) comparisons to control (p≤0.05) and IC50 's (μM) are determined by regression analysis (Finney, 1978). Drug effects are expressed as percent change from control values.

Lipoxygenase = experiment: Ex-Vivo Measurement of Lipoxygenase Inhibition in Orally Dosed Rats (LTB4); parameters: species or system rat (male Sprague Dawley); settings: p.o., pretreatment period 6 hr
Description: 2. Ex-Vivo Measurement of Lipoxygenase Inhibition in Orally Dosed Rats
Male Sprague Dawley rats (Charles River) weighing between 180 g and 200 g were dosed orally with an invention compound (1-25 mg/kg, po) suspended in 0.5% Tween 80®. After an interval of 3 or 6 hours, the rats were anesthetized with metofane (n=4/group) and blood collected in heparinized tubes. White blood cell counts and differentials were made. One ml of blood from each animal was placed in a 5 ml plastic tube in a shaker bath at 37° C. A23187 at a final concentration of 10 μM was added to the blood and the blood vortexed and incubated for 15 min at […] with gentle shaking. Incubation was terminated by vortexing sample and centrifuging immediately at 1200 xG for 15 min at 4° C. The plasma was transferred to 15 ml plastic tubes each containing 8 ml of methanol to precipitate protein followed by vortexing. The samples were stored at -70 ° C. overnight and the next day the samples were centrifuged at 800 xG for 15 min to pellet the precipitate. The samples were dried in a Savant SpeedVac Concentrator Model SVC 200H and reconstituted to the original volume with cold RIA or ELISA buffer. The reconstituted samples were stored at -70° C. until assayed. The assay for LTB4 was performed according to the directions of the [^3 H]RIA kit or ELISA kit (Seragen). The total metabolite level in 1 ml of blood is calculated and reported as ng/10^6 neutrophils. Significance is determined by a one-way analysis of variance with LSD comparisons to control (p≤0.05).

LTB4 Synthesis = experiment: Reverse Passive Arthus Reaction (pleurisy), LTB4 in pleural exudate; format: in vivo, rat (male Lewis); settings: 10 mg/kg, p.o.
Description: 3. Reverse Passive Arthus Reaction
A reverse passive Arthus reaction is induced in the pleural cavity of male Lewis rats (150-200 g; fasted overnight prior to use) by the intravenous administration of bovine serum albumin (BSA; 4 mg/0.2 ml) followed 30 minutes later by the injection of rabbit anti-BSA (1 mg/0.2 ml; lyophilized IgG fraction; Organon Teknika, West Chester, Pa.) into the right pleural space under halothane anesthesia. Drugs or vehicle (0.5% Tween-80) control are administered orally in a volume of 1 ml/100 g body weight at 1 hour prior to the anti-BSA. Animals are sacrificed at either the time of peak eicosanoid production (i.e. 5 minutes after anti-BSA for immunoreactive TxB2, 10 minutes for immunoreactive LTB4, 20 minutes for immunoreactive LTC4) or at the time of peak neutrophil infiltration (4 hours after anti-BSA) by CO2 inhalation. The pleural cavity is then exposed., the fluid exudate removed by gentle vacuum aspiration and the volume of exudate is recorded. For the determination of cellular infiltration, the pleural cavity is rinsed with 3 ml of 0.1% EDTA in sterile saline, and the recovered wash is pooled with the exudate. Cell number is determined on a model ZBI Coulter counter. For determination of eicosanoid production, undiluted pleural exudate is microfuged and the supernatant is extracted with ethanol (8-10 times volume). Extracts are either stored at -20° C., or are evaporated to dryness under a stream of N2 and reconstituted in radioimmunoassay (RIA) buffer.
Eicosanoids are quantitated by RIA according to the procedure specified by the RIA kit manufacturer (Advanced Magnetics, Cambridge, Mass.). Briefly, 100 μl of ^3 H-labeled eicosanoid and 100 μl of specific antibody are sequentially added to 100 μl of extracted pleural exudate in BGG-phosphate buffer which contains 0.01M phosphate, 0.1% bovine gamma globulin and 0.1% sodium azide at pH 7.0. Antibody-bound eicosanoid is separated from unbound eicosanoid by the addition of 750 μl of dextran (0.4%)-coated charcoal (Norit A) containing 0.1% sodium azide. The mixture is centrifuged at 2000 RPM at 5° C. for 15 minutes to pellet the charcoal and adsorbed unbound eicosanoid. Antibody-bound labeled eicosanoid is quantitated by counting in a liquid scintillation counter, and is correlated to concentration by a standard curve.

[1] = tested on: LT-dependent bronchoconstriction; experiment: Inhibition of Bronchoconstriction in Guinea Pigs Induced by Exogenously Administered Antigen; format: in vivo, guinea pig (male); settings: Cavia porcellus, 5 min, 5 min post-antigen challenge
Description: 4. Inhibition of Brochoconstriction in Guinea Pigs Induced by Exogenously Administered Antigen
Male guinea pigs (Charles River, Wilmington, Mass.) were sensitized 3-4 weeks prior to antigen challenge by administration of 2 i.m. injections of ovalbumin, 1 into each hind limb (35 mg total). Sensitized animals (500-600 g) were fasted overnight prior to experimentation. Conscious animals were then dosed p.o. with drug or vehicle alone (0.5% Tween 80 in H2 O) at the indicated times prior to antigen challenge, or anesthetized animals were dosed i.v. with drug or vehicle alone (DMSO) 5 min prior to antigen challenge. Animals were anesthetized by urethane (2.8 g/kg i.p.). A carotid artery and jugular vein were cannulated to allow for the monitoring of blood pressure and the administration of drugs, respectively. The trachea was then cannulated and connected to a Harvard Apparatus rodent ventilator (S. Natick, Mass.). Spontaneous respiration was abolished by the administration of succinylcholine (2.5 mg/kg i.v.). The animals were then ventilated with room air at a rate of 65 breaths per min. Airway inflation pressure was measured using a Statham pressure transducer (Gould Instruments, Cleveland, Ohio) connected to the tracheal cannula via a side-arm and recorded on a Grass Instruments recorder (Quincy, Mass.). The tidal volume (approximately 10 cc/kg) was adjusted to give a baseline inflation pressure of 8-10 cm H2 O at end inspiration. Animals were then allowed 20 min to stabilize.
Following the stabilization period, animals were given i.v. injections of pyrilamine (5 mg/kg), propranolol (0.1 mg/kg) and indomethacin (10 mg/kg) at 15, 10 and 5 min, respectively, prior to antigen challenge. This pretreatment results in an LT-dependent bronchoconstriction following antigen challenge, which was accomplished by i.v. administration of ovalbumin (10 mg/kg). Only one bronchoconstriction per animal was induced. End-inspiratory inflation pressure (in cm H2 O over baseline) was measured at 5 min post-antigen challenge. A mean value and standard error for the % inhibition of control bronchoconstriction in each drug-treated group was then calculated.

LDL = settings: cell mediated and Cu^+2 mediated; cited from earlier work
atherosclerotic lesions = settings: WHHL rabbits; cited from earlier work

Structure (SMILES)	inhibition at 1 µM (5-Lipoxygenase) [%]	% Inhibition of LTB4 (Lipoxygenase; 5 mg/kg) [%]	% Inhibition LTB4 Synthesis (LTB4 Synthesis) [%]	% Inhibition of LTB4 (Lipoxygenase; 10 mg/kg) [%]	inhibition in vivo at 10 mg/kg ([1]; iv, 10 mg/kg i.v.) [%]	inhibition in vivo at 25 mg/kg ([1]; po, 25 mg/kg p.o.) [%]	inhibition of oxidative modification of LDL (LDL)	inhibition of formation of atherosclerotic lesions (atherosclerotic lesions)
Cc1oc(-c2ccc(C(F)(F)F)cc2)nc1COc1cccc(CN(O)C(N)=O)c1 [Example 2, 1-Hydroxy-1-[3-[5-methyl-2-(4-trifluoromethyl-phenyl)-oxazol-4-ylmethoxy]-benzyl]-urea]	48	45	59					
NC(=O)N(O)Cc1cccc(OCc2coc(-c3ccc(F)cc3)n2)c1 [Example 3, 1-[3-[2-(4-fluoro-phenyl)-oxazol-4-ylmethoxy]-benzyl]-1-hydroxy-urea]	74			85	84	26		
CC(C)(Sc1cc(C(C)(C)C)c(O)c(C(C)(C)C)c1)Sc1cc(C(C)(C)C)c(O)c(C(C)(C)C)c1 [Probucol]							inhibits both cell mediated and Cu^+2 mediated oxidative modification of LDL	inhibit the formation of atherosclerotic lesions in WHHL rabbits
